# Several values for one entry are separate records, joined by “and”; a condition that tells them apart may be missing. Identical values can stand only once. Toxic doses and inconclusive results are not listed. Bridge positions count the residues as written; N and C are the ends. Peptide text beside a SMILES is read from it. I, II: the chains in the order shown.
# System: P388 leukemia ip, CD2F1 mice, survival T/C
# Assay: NCI In Vivo Anticancer Drug Screen. Data for tumor model P388 Leukemia (intraperitoneal) in CD2F1 (CDF1) mice
# Conditions: endpoint: median survival time, higher = longer survival
# Procedure, shortened: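 Mice carrying the transplanted tumor received test compound or vehicle. Survival was recorded in each group, and the value is the treated-group measurement divided by that of the vehicle-treated control group.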
# [1] = dose: 50.0 mg/kg/injection, schedule: Q01DX005 (ip), vehicle: Klucel (hydroxypropylcellulose) (HPC)
# [2] = dose: 100.0 mg/kg/injection, schedule: Q01DX005 (ip), vehicle: Klucel (hydroxypropylcellulose) (HPC)
# [3] = dose: 200.0 mg/kg/injection, schedule: Q01DX005 (ip), vehicle: Klucel (hydroxypropylcellulose) (HPC)
# [4] = dose: 50.0 mg/kg/injection, schedule: Q01DX009 (ip), vehicle: saline with Tween-80
# [5] = dose: 100.0 mg/kg/injection, schedule: Q04DX002 (ip), vehicle: saline with Tween-80
# [6] = dose: 200.0 mg/kg/injection, schedule: Q04DX002 (ip), vehicle: saline with Tween-80
# [7] = dose: 100.0 mg/kg/injection, schedule: Q04DX003 (ip), vehicle: Klucel (hydroxypropylcellulose) (HPC)
# [8] = dose: 100.0 mg/kg/injection, schedule: Q01DX009 (ip), vehicle: saline with Tween-80
# [9] = dose: 200.0 mg/kg/injection, schedule: Q01DX009 (ip), vehicle: saline with Tween-80
# [10] = dose: 50.0 mg/kg/injection, schedule: Q01DX009 (ip), vehicle: saline
# [11] = dose: 100.0 mg/kg/injection, schedule: Q01DX009 (ip), vehicle: saline
# [12] = dose: 200.0 mg/kg/injection, schedule: Q01DX009 (ip), vehicle: saline
# [13] = dose: 100.0 mg/kg/injection, schedule: Q04DX003 (ip), vehicle: saline
# [14] = dose: 25.0 mg/kg/injection, schedule: Q01DX009 (ip), vehicle: saline
# [15] = dose: 100.0 mg/kg/injection, schedule: Q01DX009 (ip), vehicle: Klucel (hydroxypropylcellulose) (HPC)
# [16] = dose: 200.0 mg/kg/injection, schedule: Q01DX009 (ip), vehicle: Klucel (hydroxypropylcellulose) (HPC)
compound,measurement,setting,value
COC(=O)CCSC(=O)Nc1ccc(C)cc1,T/C,[1],101 % of control
same,T/C,[2],100 % of control
same,T/C,[3],105 % of control
COc1ccc(C2C(C#N)C(=O)N3C(=O)C(NC(C)=O)=C(O)C23)cc1 (stereo unspecified),T/C,"dose: 100.0 mg/kg/injection, schedule: Q01DX001 (ip), vehicle: saline",94 % of control
same,T/C,"dose: 200.0 mg/kg/injection, schedule: Q01DX001 (ip), vehicle: saline",95 % of control
same,T/C,"dose: 400.0 mg/kg/injection, schedule: Q01DX001 (ip), vehicle: saline",97 % of control
CC(=O)c1cc(-c2ccccn2)c(=O)n2ccccc12,T/C,"dose: 12.5 mg/kg/injection, schedule: Q01DX009 (ip), vehicle: saline with Tween-80",105 % of control
same,T/C,"dose: 25.0 mg/kg/injection, schedule: Q01DX009 (ip), vehicle: saline with Tween-80",99 % of control
same,T/C,[4],100 % of control and 87 % of control
CS(=O)(=O)C(c1nc2n(c1O)/C(=N/C(=O)Nc1ccc(Cl)cc1)N=N2)c1nc2n(c1O)/C(=N/C(=O)Nc1ccc(Cl)cc1)N=N2,T/C,"dose: 60.0 mg/kg/injection, schedule: Q01DX005 (ip), vehicle: saline",97 % of control
same,T/C,"dose: 120.0 mg/kg/injection, schedule: Q01DX005 (ip), vehicle: saline",96 % of control
same,T/C,"dose: 240.0 mg/kg/injection, schedule: Q01DX005 (ip), vehicle: saline",95 % of control
COc1ccc(N=C(C2=C(O)c3ccccc3C2=O)c2ccccc2)cc1,T/C,[5],101 % of control
same,T/C,[6],101 % of control
same,T/C,"dose: 400.0 mg/kg/injection, schedule: Q04DX002 (ip), vehicle: saline with Tween-80",97 % of control
CN1C(=O)CC([Se]c2ccccc2)C1=O (stereo unspecified),T/C,"dose: 6.25 mg/kg/injection, schedule: Q04DX003 (ip), vehicle: Klucel (hydroxypropylcellulose) (HPC)",107 % of control and 97 % of control
same,T/C,"dose: 12.5 mg/kg/injection, schedule: Q04DX003 (ip), vehicle: Klucel (hydroxypropylcellulose) (HPC)",103 % of control and 104 % of control
same,T/C,"dose: 25.0 mg/kg/injection, schedule: Q04DX003 (ip), vehicle: Klucel (hydroxypropylcellulose) (HPC)",99 % of control and 105 % of control
same,T/C,"dose: 50.0 mg/kg/injection, schedule: Q04DX003 (ip), vehicle: Klucel (hydroxypropylcellulose) (HPC)",100 % of control
same,T/C,[7],105 % of control
COc1ccc2ccccc2c1C1=CC(c2ccccc2)C(c2cc(C)n(-c3ccccc3)n2)C(=O)N1 (stereo unspecified),T/C,[5],101 % of control
same,T/C,[6],106 % of control
Cc1cc(C)n2[nH]c(=O)cc2n1,T/C,"dose: 25.0 mg/kg/injection, schedule: Q01DX009 (ip), vehicle: suspension in saline",99 % of control
same,T/C,"dose: 50.0 mg/kg/injection, schedule: Q01DX009 (ip), vehicle: suspension in saline",97 % of control
same,T/C,"dose: 100.0 mg/kg/injection, schedule: Q01DX009 (ip), vehicle: suspension in saline",97 % of control
same,T/C,"dose: 200.0 mg/kg/injection, schedule: Q01DX009 (ip), vehicle: suspension in saline",98 % of control
COC(=O)C1=C(C)NC(C)=C(C(=O)OC)C1c1cc2ccccc2n2nnnc12,T/C,"dose: 60.0 mg/kg/injection, schedule: Q01DX005 (ip), vehicle: saline with Tween-80",95 % of control
same,T/C,"dose: 120.0 mg/kg/injection, schedule: Q01DX005 (ip), vehicle: saline with Tween-80",98 % of control
same,T/C,"dose: 240.0 mg/kg/injection, schedule: Q01DX005 (ip), vehicle: saline with Tween-80",88 % of control
C(=N/c1ccccn1)/c1ccc(/C=N\c2ccccn2)cc1,T/C,[4],108 % of control
same,T/C,[8],100 % of control
same,T/C,[9],106 % of control
same,T/C,"dose: 400.0 mg/kg/injection, schedule: Q01DX009 (ip), vehicle: saline with Tween-80",116 % of control
Cc1ccc(S(=O)(=O)OC2C(OCc3ccccc3)C(OCc3ccccc3)C3CON(C)C32)cc1 (stereo unspecified),T/C,[1],86 % of control
same,T/C,[2],89 % of control
same,T/C,[3],92 % of control
NC(N)=N/N=C/c1nccc2ccccc12,T/C,"dose: 25.0 mg/kg/injection, schedule: Q01DX005 (ip), vehicle: saline with Tween-80",99 % of control and 103 % of control
same,T/C,"dose: 50.0 mg/kg/injection, schedule: Q01DX005 (ip), vehicle: saline with Tween-80",98 % of control and 99 % of control and 102 % of control
same,T/C,"dose: 100.0 mg/kg/injection, schedule: Q01DX005 (ip), vehicle: saline with Tween-80",105 % of control and 120 % of control
Cc1ccc(S(=O)c2ccccc2)c(C(O)(C(F)(F)F)C(F)(F)F)c1 (stereo unspecified),T/C,[7],91 % of control
same,T/C,"dose: 200.0 mg/kg/injection, schedule: Q04DX003 (ip), vehicle: Klucel (hydroxypropylcellulose) (HPC)",93 % of control
same,T/C,"dose: 400.0 mg/kg/injection, schedule: Q04DX003 (ip), vehicle: Klucel (hydroxypropylcellulose) (HPC)",94 % of control
O=c1oc(-c2ccc(Cl)cc2[N+](=O)[O-])nc2ccccc12,T/C,[10],108 % of control
same,T/C,[11],104 % of control
same,T/C,[12],100 % of control
COc1ccccc1C1C2CCCC(C2=O)C(c2ccccc2OC)N1C (stereo unspecified),T/C,[13],98 % of control
same,T/C,"dose: 200.0 mg/kg/injection, schedule: Q04DX003 (ip), vehicle: saline",99 % of control
same,T/C,"dose: 400.0 mg/kg/injection, schedule: Q04DX003 (ip), vehicle: saline",99 % of control
N#Cc1c(Cl)cccc1N1CCSCC1,T/C,"dose: 60.0 mg/kg/injection, schedule: Q01DX005 (ip), vehicle: Klucel (hydroxypropylcellulose) (HPC)",94 % of control
same,T/C,"dose: 120.0 mg/kg/injection, schedule: Q01DX005 (ip), vehicle: Klucel (hydroxypropylcellulose) (HPC)",102 % of control
same,T/C,"dose: 240.0 mg/kg/injection, schedule: Q01DX005 (ip), vehicle: Klucel (hydroxypropylcellulose) (HPC)",100 % of control
CC(C)C1NC(C(C)C)N2C(C(C)C)N12 (stereo unspecified),T/C,"dose: 100.0 mg/kg/injection, schedule: Q01DX001 (ip), vehicle: Klucel (hydroxypropylcellulose) (HPC)",100 % of control
same,T/C,"dose: 200.0 mg/kg/injection, schedule: Q01DX001 (ip), vehicle: Klucel (hydroxypropylcellulose) (HPC)",100 % of control
same,T/C,"dose: 400.0 mg/kg/injection, schedule: Q01DX001 (ip), vehicle: Klucel (hydroxypropylcellulose) (HPC)",106 % of control
CCC(=O)NC(Cc1ccc(F)cc1)C(=O)O (stereo unspecified),T/C,[10],90 % of control
same,T/C,[11],88 % of control
same,T/C,[12],90 % of control
CCNc1nncs1,T/C,[14],113 % of control
same,T/C,[11],161 % of control
same,T/C,"dose: 125.0 mg/kg/injection, schedule: Q01DX009 (ip), vehicle: saline",162 % of control
CC1OC(OC2C(O)C(OCCc3ccc(O)c(O)c3)OC(CO)C2OC(=O)/C=C/c2ccc(O)c(O)c2)C(O)C(O)C1O (stereo unspecified),T/C,"dose: 4.75 mg/kg/injection, schedule: Q01DX005 (ip), vehicle: Klucel (hydroxypropylcellulose) (HPC)",106 % of control
same,T/C,"dose: 9.5 mg/kg/injection, schedule: Q01DX005 (ip), vehicle: Klucel (hydroxypropylcellulose) (HPC)",100 % of control
same,T/C,"dose: 19.0 mg/kg/injection, schedule: Q01DX005 (ip), vehicle: Klucel (hydroxypropylcellulose) (HPC)",100 % of control
same,T/C,"dose: 38.0 mg/kg/injection, schedule: Q01DX005 (ip), vehicle: Klucel (hydroxypropylcellulose) (HPC)",100 % of control
Ic1ccc2c(c1)N(c1ccccc1)c1cc(N=c3ccc4nc5ccc(I)cc5n(-c5ccccc5)c-4c3)ccc1N2,T/C,[15],96 % of control
same,T/C,[16],89 % of control
CCOC(=O)c1ccc(NC(CCC(C#N)(CCC(=NC(C)(C)C)Nc2ccc(C(=O)OCC)cc2)C(=O)OCC)=NC(C)(C)C)cc1 (stereo unspecified),T/C,[4],95 % of control
same,T/C,[8],95 % of control
same,T/C,[9],95 % of control
NC(CSSCC(N)C(=O)NC(Cc1ccccc1)C(=O)O)C(=O)NC(Cc1ccccc1)C(=O)O (stereo not drawn) (I: H-Cys-Phe-OH / II: H-Cys-Phe-OH; disulfide I:1-II:1; configuration not given here),T/C,[1],101 % of control
same,T/C,[2],97 % of control
same,T/C,[3],105 % of control
CC(C)CC(N)C(=O)O (stereo unspecified),T/C,"dose: 50.0 mg/kg/injection, schedule: Q01DX009 (ip), vehicle: Klucel (hydroxypropylcellulose) (HPC)",105 % of control
same,T/C,[15],105 % of control
same,T/C,[16],94 % of control
C#CCSc1ncnc2nc[nH]c12,T/C,[14],95 % of control
same,T/C,"dose: 25.0 mg/kg/injection, schedule: Q04DX003 (ip), vehicle: saline",104 % of control
same,T/C,[10],109 % of control
same,T/C,"dose: 50.0 mg/kg/injection, schedule: Q04DX003 (ip), vehicle: saline",100 % of control
same,T/C,[11],86 % of control
same,T/C,[13],100 % of control

# Reference: PubChem BioAssay AID330 (DTP/NCI, 2004)
